This note sets out measurements from publication PMC5045383 (Oncotarget, 2016).

Experiment [1] has as its system PF-382 (FLT3-wt). The experiment is described as follows: cells. Format: cell-based. Conditions: 72 hours. The procedure: (§1) Cells were grown in 96-well culture plates (3000/well). […] Cell proliferation was determined after 72 hours drug treatment. […] Cell viability was measured with the CellTiter–Glo assay (Promega, USA), according to the manufacturer's instructions, and luminescence was measured in a multi-label reader (Envision, PerkinElmer, USA). […] GI50 values were calculated using Prism 5.0 (GraphPad Software, San Diego, CA).

Experiment [2] deals with HL-60 (FLT3-wt). The experiment is described as follows: Cell proliferation assay (CellTiter-Glo). Format: cell-based, human. The settings on record: 72 hours. On the procedure: as §1
In general terms: In ATP-based viability assays light output follows the ATP content of the culture.

The test system of experiment [3] is SKM-1 (FLT3-wt). The experiment is described as follows: Cell proliferation assay (CellTiter-Glo). Format: cell-based, human. Conditions: 72 hours. The procedure:
as §1

Experiment [4] concerns U937 (FLT3-wt). The experiment is described as follows: Cell proliferation assay (CellTiter-Glo). Format: cell-based, human. On the procedure:
(§2) The human AML cell lines MV4-11, U937, OCI-AML-3 were purchased from the American Type Culture Collection (ATCC) (Manassas, VA, USA). The FLT3-ITD-expressing lines, MOLM-13, MOLM-14, were provided by Dr. Scott Armstrong, Dana Farber Cancer Institute (DFCI), Boston, MA. The wt FLT3-expressing AML line, NB4 (KRAS A18D), was obtained from Dr. Gary Gilliland. […] MV4-11 was cultured in IDMEM media (Corning, USA) with 10% FBS and supplemented with 2% L-glutamine and 1% penicillin/streptomycin. OCI-AML-3 was cultured in α-MEM media (Corning, USA) with 10% FBS and supplemented with 2% L-glutamine and 1% penicillin/streptomycin. All cell lines were maintained in culture media at 37°C with 5% CO2.
as §1

Experiment [5] has as its system OCI-AML-3 (FLT3-wt). The experiment is described as follows: Cell proliferation assay (CellTiter-Glo). Conditions: 72 hours. Format: cell-based, human. The procedure: as §2, §1
The test system of experiment [6] is MOLM-13 (FLT3-ITD/wt). The experiment is described as follows: Cell proliferation assay (CellTiter-Glo). Format: cell-based, human. The procedure:
as §2, §1

For experiment [7], the system named is MV4-11 (FLT3-ITD). The experiment is described as follows: Cell proliferation assay (CellTiter-Glo). In kind it is cell-based, human. On the procedure:
as §2, §1

Experiment [8] deals with MOLM-14 (FLT3-ITD/wt). The experiment is described as follows: Cell proliferation assay (CellTiter-Glo). In kind it is cell-based, human. The procedure: as §2, §1
Experiment [9] has as its system NB4 (FLT3-wt). The experiment is described as follows: Cell proliferation assay (CellTiter-Glo). Format: cell-based, human. The settings on record: 72 hours. The procedure:
as §2, §1

Experiment [10] concerns MOLM14. The experiment is described as follows: Cell cycle analysis (PI, flow cytometry). Conditions: MOLM14, 1 μM, 24 hours. Format: cell-based, human. On the procedure: (§3) The cells were fixed in 70% cold ethanol and incubated at −20°C overnight, then stained with PI/RNase staining buffer (BD Pharmingen). Flow cytometry was performed using a FACS Calibur (BD), and results were analyzed by ModFit software.
In general terms: A flow cytometer gives signals particle by particle.

Experiment [11] relates to MV4-11. The experiment is described as follows: Cell cycle analysis (PI, flow cytometry). The settings on record: MV4-11, 1 μM, 24 hours. Format: cell-based, human. On the procedure:
as §3

The subject of experiment [12] is MV4-11. The experiment is described as follows: Combination study TCS359 + MK2206. In kind it is cell-based, human. The settings on record: TCS359 0.12 μM, MK2206 0.12 μM, alone or combined, 72 hours. On the procedure: (§4) The FLT3-ITD-expressing lines MOLM-13, MOLM14 and MV4-11 were grown in 96-well culture plates (3000/well), respectively. Combination treatment with the FLT3 kinase inhibitor, TCS359, and with the Akt inhibitor, MK2206, was performed. Cell proliferation was determined after treatment with compounds for 72 hours. Cell viability was measured using the CellTiter–Glo assay (Promega, USA), data were normalized to control groups (DMSO) and represented by the mean of three independent measurements with standard error < 20%. CI index was calculated by Calcusyn software (Biosoft, version 2.1), using the Chou-Talalay method.

The subject of experiment [13] is MOLM-14. The experiment is described as follows: Combination study TCS359 + MK2206. In kind it is cell-based, human. Conditions: TCS359 3.3 μM, MK2206 0.12 μM, alone or combined, 72 hours. On the procedure:
as §4

The subject of experiment [14] is MOLM-13. The experiment is described as follows: Combination study TCS359 + MK2206. Format: cell-based, human. The settings on record: TCS359 0.12 μM, MK2206 0.36 μM, alone or combined, 72 hours. The procedure: as §4
Experiment [15] relates to FLT3-ITD mediated signaling in MOLM14 and MV4-11 cell lines. The experiment is described as follows: Signaling pathway effect examination (immunoblot). Conditions: 1 μM, 4 hours. Format: cell-based, human. An excerpt: Cells were then washed in PBS and lysed in cell lysis buffer. FLT3, Phospho-FLT3 (Tyr589/591), AKT, Phospho-AKT Ser473, Phospho-AKT Thr308, GSK-3β, Phospho-GSK-3β (Ser9), Phospho-FoxO1 (Thr24), FoxO1, PRAS40, Phospho-PRAS40 (Thr246), STAT5, Phospho-STAT5 (Tyr694), NF-ΚB-P65, Phospho-NF-ΚB-P65 (Ser536), P70S6K, Phospho-P70S6K Thr389, 4EBP1, Phospho-4EBP1 (Thr37/46), ERK, Phospho-p44/42MAPK (Erk1/2) (Thr202/Tyr204), C-Myc and GAPDH antibodies (Cell Signaling Technology) were used for immunoblotting.
In general terms: A western blot detects proteins with antibodies after separation by electrophoresis.

Experiment [16] concerns MOLM14, MV4-11 cells. The experiment is described as follows: Apoptosis effect examination (PARP, Caspase-3 immunoblot). In kind it is cell-based, human. The settings on record: at 1 μM, 24 hours. An excerpt: Cells were then washed in PBS and lysed in cell lysis buffer. PARP, Caspase-3, GAPDH antibodies (Cell signaling Technology) were used for immunoblotting.
The test system of experiment [17] is FLT3-ITD/FLT3 wt-expressing MOLM13 and MOLM14 cells. The procedure: as §1
The mark [18] stands for this setting: Homo sapiens, MOLM-13 (FLT3-ITD/wt), 72 hours, Table 1.
Setting [19] is: Homo sapiens, MV4-11 (FLT3-ITD), 72 hours, Table 1.
Setting [20] is: Homo sapiens, MOLM-14 (FLT3-ITD/wt), 72 hours, Table 1.
Where [21] appears, read: MOLM-13 (FLT3-ITD/wt), 72 hours, Table 1.
Setting [22] is: MV4-11 (FLT3-ITD), 72 hours, Table 1.
The mark [23] stands for this setting: Homo sapiens, read-out: Relative activity(%).

For `NC1(C(=O)N[C@@H](CCO)c2ccc(Cl)cc2)CCN(c2ncnc3[nH]ccc23)CC1` [AZD5363], the concentration for 50% growth inhibition (GI50) – broadly, the concentration at which growth is held to half of that of the control – is 480 nM in [1] (Homo sapiens); 370 nM in experiment [2] (Homo sapiens); more than 10000 nM in experiment [3] (Homo sapiens); 610 nM in experiment [4] (Homo sapiens, U-937, 72 hours); 1200 nM in experiment [5] (Homo sapiens); 160 nM in experiment [6] (setting [18]). The 50% growth inhibitory concentration (GI50) in experiment [7] (setting [19]) was determined as 670 nM; in experiment [8] (setting [20]), 500 nM; in experiment [9] (Homo sapiens) it was 930 nM.
For the compound `NC1(Cc2ccc(Cl)cc2)CCN(c2ncnc3[nH]ccc23)CC1` [CCT128930], the 50% growth inhibitory concentration (GI50) in [1] was 1300 nM; in experiment [2], 1500 nM; in experiment [3], 4300 nM; in experiment [4] (72 hours), 4100 nM; in experiment [5], 2200 nM; in experiment [6] (setting [21]), 650 nM. Moreover, the concentration for 50% growth inhibition (GI50) in [7] (setting [22]) amounted to 1000 nM; in experiment [8] (MOLM-14 (FLT3-ITD/wt), 72 hours, Table 1), 1100 nM; in experiment [9] it was 2500 nM.
Consider `CC(C)NC[C@@H](C(=O)N1CCN(c2ncnc3c2[C@H](C)C[C@H]3O)CC1)c1ccc(Cl)cc1` [GDC0068], for which the GI50 in [1] (Homo sapiens) was 440 nM; in [2] (Homo sapiens), 310 nM; in [3] (Homo sapiens) it was more than 10000 nM; in experiment [4] (Homo sapiens, U-937, 72 hours) it was 590 nM; in [5] (Homo sapiens) it was 1100 nM; in [6] (setting [18]), 290 nM. Further, the GI50 in [7] (setting [19]) worked out at 2100 nM; in [8] (setting [20]), 850 nM; in [9] (Homo sapiens), 5900 nM.
For the compound `CCn1c(-c2nonc2N)nc2c(C#CC(C)(C)O)ncc(OC[C@H]3CCCNC3)c21` [GSK690693], the GI50 in [1] (Homo sapiens) is 240 nM; in [2] (Homo sapiens), 160 nM; in experiment [3] (Homo sapiens), more than 10000 nM; in experiment [4] (Homo sapiens, U-937, 72 hours), 5100 nM; in experiment [5] (Homo sapiens), more than 10000 nM; in experiment [6] (setting [18]) it was 280 nM. The GI50 in experiment [7] (setting [19]) was 5200 nM; in experiment [8] (setting [20]), 540 nM; in experiment [9] (Homo sapiens) it was 220 nM. The “%G0–G1” value in [10] is on record as 54.52%; in experiment [11], 60.48%. The “%G2–M” value came to 9.78% in experiment [10] and 7% in experiment [11]. For the same compound, the “%S” value in experiment [10] amounted to 35.7%; in experiment [11], 32.52%.
For `NC1(c2ccc(-c3nc4ccn5c(=O)[nH]nc5c4cc3-c3ccccc3)cc2)CCC1` [MK2206], the activity at 0.12 µM in experiment [12] (setting [23]) is 88.6%; in [13] (setting [23]), 65.5%. In addition, the activity at 0.36 µM in [14] (setting [23]) turned out to be 59.3%. The GI50 in experiment [1] (Homo sapiens) came to 610 nM; in experiment [2] (Homo sapiens) it was 160 nM; in [3] (Homo sapiens) it was 4600 nM; in experiment [4] (Homo sapiens, U-937, 72 hours) it was 7200 nM; in experiment [5] (Homo sapiens), 1400 nM; in experiment [6] (setting [18]) it was 100 nM. The 50% growth inhibitory concentration (GI50) was determined as 5200 nM in experiment [7] (setting [19]), 320 nM in experiment [8] (setting [20]) and 210 nM in experiment [9] (Homo sapiens). Besides, the “effect on FLT3 signaling pathway (pFLT3, pSTAT5, c-MYC)” value in experiment [15] is on record as “did not affect this signaling pathway”. The results for the “%G0–G1” value in experiment [10] and in experiment [11] were 63.9% and 64.92%, respectively. For the same compound, the figures for the “%G2–M” value in [10] and in experiment [11] were 7.3% and 7.69%, respectively. Besides, the “%S” value is reported as 28.81% in [10] and 27.39% in [11]. Further, the apoptosis induction entry in experiment [16] is recorded as “did not induce apoptosis”.
Regarding `COc1ccc(C(=O)Nc2sc3c(c2C(N)=O)CCCC3)cc1OC` [TCS359], the “Relative activity(%)” value in experiment [12] was 98.9%; in experiment [13], 68.4%; in [14] it was 69.7%. Moreover, the GI50 was more than 10000 nM in experiment [1]; 540 nM in experiment [2]; more than 10000 nM in experiment [3]; more than 10000 nM in [4] (72 hours); more than 10000 nM in experiment [5]; 560 nM in experiment [6] (setting [21]). Further, the GI50 in experiment [6] (MOLM-13+FL(1 ng/mL)) was more than 10000 nM; in experiment [6] (MOLM-13+FL(5 ng/mL)), more than 10000 nM; in [6] (MOLM-13+FL(10 ng/mL)) it was more than 10000 nM; in experiment [6] (MOLM-13, no FLT3 ligand, Table 3), 420 nM; in experiment [7] (setting [22]), 680 nM; in experiment [7] (MV4-11+FL(10 ng/mL)), 1400 nM. For the same compound, the concentration for 50% growth inhibition (GI50) in experiment [7] (MV4-11, no FLT3 ligand, Table 3) is 490 nM; in experiment [8] (MOLM-14+FL(1 ng/mL)) it was more than 10000 nM; in experiment [8] (MOLM-14+FL(5 ng/mL)), more than 10000 nM; in experiment [8] (MOLM-14+FL(10 ng/mL)), more than 10000 nM; in experiment [9], more than 10000 nM. In addition, the “fold loss of activity with FLT3 ligand stimulation” value in experiment [17] is 6-15 fold. Besides, the “%G0–G1” value in experiment [10] worked out at 55.04%; in experiment [11], 73.62%. Also, the “%G2–M” value in experiment [10] came to 9.08%; in experiment [11] it was 2.57%. Also, the results for the “%S” value in experiment [10] and in experiment [11] were 35.88% and 23.81%, respectively. Also, in experiment [16], the apoptosis induction result is listed as “did not induce apoptosis”.
